Laboratory results as given in PubChem BioAssay (NCI).
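Dose response: 5 concentrations. Exposure: 48 h. Format: 96-well plates. Endpoint: linear interpolation; highest concentration if not reached. TGI: concentration producing complete growth inhibition.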

Columns and labels:
Assay in all cases: growth of human tumour cells (NCI), 48 h
786-0 renal = test system: 786-0 renal
HCT-15 colon = test system: HCT-15 colon
IGROV1 ovarian = test system: IGROV1 ovarian
MDA-N = test system: MDA-N
NCI-H460 lung = test system: NCI-H460 lung
NCI/ADR-RES ovarian = test system: NCI/ADR-RES ovarian
SF-268 CNS = test system: SF-268 CNS
SF-539 CNS = test system: SF-539 CNS
SNB-19 CNS = test system: SNB-19 CNS
T-47D breast = test system: T-47D breast

Nc1ccc(S(=O)(=O)Nc2nc3ccccc3nc2N2CCCCCC2)cc1
TGI (786-0 renal): > 100 µM | TGI (HCT-15 colon): 95.5 µM | TGI (IGROV1 ovarian): > 100 µM | TGI (MDA-N): > 100 µM | TGI (NCI-H460 lung): 61.2 µM | TGI (NCI/ADR-RES ovarian): > 100 µM | TGI (SF-268 CNS): > 100 µM | TGI (SF-539 CNS): 35.7 µM | TGI (SNB-19 CNS): > 100 µM | TGI (T-47D breast): > 100 µM

CN(C)/N=N/c1nc2c(c(=O)n(C)c(=O)n2C)n1CC(O)CO (centres undefined)
TGI (786-0 renal): > 100 µM | TGI (HCT-15 colon): > 100 µM | TGI (IGROV1 ovarian): > 100 µM | TGI (MDA-N): > 100 µM | TGI (NCI-H460 lung): > 100 µM | TGI (NCI/ADR-RES ovarian): > 100 µM | TGI (SF-268 CNS): > 100 µM | TGI (SNB-19 CNS): > 100 µM | TGI (T-47D breast): > 100 µM

COc1cccc(N=N/C(=N\NC(=O)c2ccc(C)cc2)c2ccc(N(CCC#N)CCC#N)cc2C)c1
TGI (786-0 renal): > 100 µM | TGI (HCT-15 colon): > 100 µM | TGI (IGROV1 ovarian): > 100 µM | TGI (MDA-N): > 100 µM | TGI (NCI-H460 lung): > 100 µM | TGI (NCI/ADR-RES ovarian): > 100 µM | TGI (SF-268 CNS): > 100 µM | TGI (SF-539 CNS): > 100 µM | TGI (SNB-19 CNS): > 100 µM | TGI (T-47D breast): > 100 µM

O=C(Cc1ccc(Cl)c(Cl)c1)NCC1(N2CCCCC2)CCCCC1
TGI (786-0 renal): > 100 µM | TGI (HCT-15 colon): > 100 µM | TGI (IGROV1 ovarian): > 100 µM | TGI (MDA-N): > 100 µM | TGI (NCI-H460 lung): > 100 µM | TGI (NCI/ADR-RES ovarian): > 100 µM | TGI (SF-268 CNS): > 100 µM | TGI (SNB-19 CNS): > 100 µM | TGI (T-47D breast): 89.7 µM

COc1cc2cc(C(=O)N3CC(COS(C)(=O)=O)c4ccc(O)cc43)[nH]c2c(OC)c1OC (centres undefined)
TGI (786-0 renal): 0.0106 µM | TGI (HCT-15 colon): 0.000858 µM | TGI (IGROV1 ovarian): 0.0378 µM | TGI (NCI/ADR-RES ovarian): 0.524 µM | TGI (SF-539 CNS): < 0.0001 µM | TGI (SNB-19 CNS): 0.012 µM | TGI (T-47D breast): 0.0416 µM

O=C1CC(=O)n2cnc3cccc(c32)N1
TGI (786-0 renal): > 100 µM | TGI (HCT-15 colon): > 100 µM | TGI (IGROV1 ovarian): > 100 µM | TGI (MDA-N): > 100 µM | TGI (NCI-H460 lung): > 100 µM | TGI (NCI/ADR-RES ovarian): > 100 µM | TGI (SF-268 CNS): > 100 µM | TGI (SF-539 CNS): > 100 µM | TGI (SNB-19 CNS): > 100 µM | TGI (T-47D breast): > 100 µM

NCC(O)CSCc1ccc(Cl)cc1 (centres undefined)
TGI (786-0 renal): > 100 µM | TGI (HCT-15 colon): > 100 µM | TGI (IGROV1 ovarian): > 100 µM | TGI (MDA-N): > 100 µM | TGI (NCI-H460 lung): > 100 µM | TGI (NCI/ADR-RES ovarian): > 100 µM | TGI (SF-268 CNS): > 100 µM | TGI (SNB-19 CNS): > 100 µM | TGI (T-47D breast): > 100 µM

COc1cc(C2C3=C(COC3=O)Oc3cc4c(cc32)OCO4)cc(OC)c1O (centres undefined)
TGI (786-0 renal): 15.5 µM | TGI (HCT-15 colon): > 100 µM | TGI (IGROV1 ovarian): 21.9 µM | TGI (NCI-H460 lung): 4.05 µM | TGI (SF-268 CNS): 26.8 µM | TGI (SF-539 CNS): < 0.0148 µM | TGI (SNB-19 CNS): 27.6 µM | TGI (T-47D breast): 60.3 µM

NNC(=O)C1(NC(=O)c2ccccc2)C(c2ccccc2)C(c2ccccc2)=NN1c1ccccc1 (centres undefined)
TGI (786-0 renal): > 100 µM | TGI (HCT-15 colon): > 100 µM | TGI (IGROV1 ovarian): > 100 µM | TGI (MDA-N): 57.9 µM | TGI (NCI-H460 lung): > 100 µM | TGI (NCI/ADR-RES ovarian): > 100 µM | TGI (SF-268 CNS): > 100 µM | TGI (SF-539 CNS): > 100 µM | TGI (SNB-19 CNS): > 100 µM | TGI (T-47D breast): > 100 µM

COc1ccc(-c2oc3cc(O)cc(O)c3c(=O)c2OC)cc1
TGI (HCT-15 colon): > 100 µM | TGI (IGROV1 ovarian): > 100 µM | TGI (MDA-N): > 100 µM | TGI (NCI-H460 lung): 65.6 µM | TGI (NCI/ADR-RES ovarian): > 100 µM | TGI (SF-268 CNS): 78.2 µM | TGI (SNB-19 CNS): > 100 µM | TGI (T-47D breast): > 100 µM

NCc1cccc(O)c1O
TGI (786-0 renal): > 100 µM | TGI (HCT-15 colon): > 100 µM | TGI (NCI-H460 lung): > 100 µM | TGI (SF-268 CNS): > 100 µM | TGI (SNB-19 CNS): > 100 µM

O=[N+]([O-])c1cccc(N=Nc2c(O)c(S(=O)(=O)O)cc3cc(S(=O)(=O)O)ccc23)c1
TGI (786-0 renal): > 100 µM | TGI (HCT-15 colon): > 100 µM | TGI (IGROV1 ovarian): > 100 µM | TGI (MDA-N): > 100 µM | TGI (NCI-H460 lung): > 100 µM | TGI (NCI/ADR-RES ovarian): > 100 µM | TGI (SF-268 CNS): > 100 µM | TGI (SF-539 CNS): > 100 µM | TGI (SNB-19 CNS): > 100 µM | TGI (T-47D breast): > 100 µM

CN(C)CCn1c(CO)nc2c1c(=O)n(C)c(=O)n2C
TGI (786-0 renal): > 100 µM | TGI (HCT-15 colon): > 100 µM | TGI (IGROV1 ovarian): > 100 µM | TGI (NCI-H460 lung): > 100 µM | TGI (NCI/ADR-RES ovarian): > 100 µM | TGI (SF-268 CNS): > 100 µM | TGI (SF-539 CNS): > 100 µM | TGI (SNB-19 CNS): > 100 µM | TGI (T-47D breast): > 100 µM

CN1C(=O)C(O)C[C@@H]1c1ccccc1 (some centres undefined)
TGI (786-0 renal): > 100 µM | TGI (HCT-15 colon): > 100 µM | TGI (IGROV1 ovarian): > 100 µM | TGI (MDA-N): > 100 µM | TGI (NCI/ADR-RES ovarian): > 100 µM | TGI (SF-268 CNS): > 100 µM | TGI (SF-539 CNS): > 100 µM | TGI (SNB-19 CNS): > 100 µM | TGI (T-47D breast): > 100 µM

CC(C)=CCNc1nc(Cl)nc2nc[nH]c12
TGI (786-0 renal): > 100 µM | TGI (IGROV1 ovarian): > 100 µM | TGI (MDA-N): > 100 µM | TGI (NCI-H460 lung): 68.8 µM | TGI (NCI/ADR-RES ovarian): > 100 µM | TGI (SF-268 CNS): > 100 µM | TGI (SF-539 CNS): > 100 µM | TGI (SNB-19 CNS): > 100 µM | TGI (T-47D breast): > 100 µM

Cc1ccc(S(=O)(=O)Nn2c(O)c(C#N)c(-c3ccc(Cl)cc3)c(C#N)c2=O)cc1
TGI (786-0 renal): > 100 µM | TGI (HCT-15 colon): > 100 µM | TGI (IGROV1 ovarian): > 100 µM | TGI (MDA-N): > 100 µM | TGI (NCI-H460 lung): > 100 µM | TGI (NCI/ADR-RES ovarian): > 100 µM | TGI (SF-268 CNS): > 100 µM | TGI (SF-539 CNS): > 100 µM | TGI (SNB-19 CNS): > 100 µM

CCN(CC)C(=S)SS(=O)(=O)c1cccc(N)c1
TGI (786-0 renal): > 100 µM | TGI (HCT-15 colon): > 100 µM | TGI (MDA-N): > 100 µM | TGI (NCI-H460 lung): > 100 µM | TGI (NCI/ADR-RES ovarian): > 100 µM | TGI (SF-268 CNS): > 100 µM | TGI (SF-539 CNS): > 100 µM | TGI (SNB-19 CNS): > 100 µM | TGI (T-47D breast): > 100 µM

Cc1cc(C)c2c(c1)C(=O)/C(=C/c1ccccc1C(=O)O)C2
TGI (786-0 renal): > 100 µM | TGI (HCT-15 colon): > 100 µM | TGI (IGROV1 ovarian): > 100 µM | TGI (MDA-N): > 100 µM | TGI (NCI-H460 lung): > 100 µM | TGI (SF-268 CNS): > 100 µM | TGI (SF-539 CNS): 89.3 µM | TGI (SNB-19 CNS): > 100 µM | TGI (T-47D breast): > 100 µM

O=C(N/N=C/C=C/c1ccccc1)c1ccccc1Nc1ccccc1C(=O)N/N=C/C=C/c1ccccc1
TGI (786-0 renal): > 100 µM | TGI (HCT-15 colon): > 100 µM | TGI (IGROV1 ovarian): > 100 µM | TGI (MDA-N): > 100 µM | TGI (NCI-H460 lung): > 100 µM | TGI (NCI/ADR-RES ovarian): > 100 µM | TGI (SF-268 CNS): > 100 µM | TGI (SNB-19 CNS): > 100 µM | TGI (T-47D breast): > 100 µM

C/C(=N\NC(=S)N(C)C)c1cccnn1
TGI (786-0 renal): > 100 µM | TGI (HCT-15 colon): > 100 µM | TGI (IGROV1 ovarian): > 40.3 µM | TGI (MDA-N): > 74.2 µM | TGI (NCI/ADR-RES ovarian): 36.6 µM | TGI (SF-539 CNS): 1.65 µM | TGI (SNB-19 CNS): > 100 µM | TGI (T-47D breast): > 100 µM

O=c1[nH]n(Cc2ccccc2)c2ccc([N+](=O)[O-])cc12
TGI (786-0 renal): > 100 µM | TGI (HCT-15 colon): > 100 µM | TGI (IGROV1 ovarian): > 100 µM | TGI (MDA-N): 99.6 µM | TGI (NCI-H460 lung): > 100 µM | TGI (NCI/ADR-RES ovarian): > 100 µM | TGI (SF-268 CNS): > 100 µM | TGI (SF-539 CNS): > 100 µM | TGI (SNB-19 CNS): > 100 µM

CN=C(/N=c1\ssc(=NC)n1C)N(C)C
TGI (786-0 renal): > 100 µM | TGI (IGROV1 ovarian): > 100 µM | TGI (NCI-H460 lung): > 100 µM | TGI (SF-268 CNS): > 100 µM | TGI (SF-539 CNS): > 100 µM | TGI (SNB-19 CNS): > 100 µM

COC[C@@H](N=Cc1ccc([N+](=O)[O-])cc1)C(C)C
TGI (786-0 renal): > 100 µM | TGI (HCT-15 colon): > 100 µM | TGI (IGROV1 ovarian): > 100 µM | TGI (MDA-N): > 100 µM | TGI (NCI-H460 lung): > 100 µM | TGI (NCI/ADR-RES ovarian): > 100 µM | TGI (SF-268 CNS): > 100 µM | TGI (SNB-19 CNS): > 100 µM
